Patent publication US11446287B2, “Compounds and methods for EP300 or CBP modulation and indications therefor” (Opna Immuno-Oncology SA, priority 2019, dated 2022)

These compounds were tested against T1, Recombinant human CBP containing the bromodomain (CBP-BD (1043-1159)) (Homo sapiens, UniProt Q92793) (assay: CBP Alphascreen binding assay). Conditions: read-out: CREBBP (CBP) IC50.
T1 construct: Recombinant human CBP bromodomain (CBP-BD (1043-1159)); made in house; host or cells: E. coli BL21-CodonPlus (DE3), modified pET vector
Summary of the method: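 Buffer: 50 mM HEPES pH 7.5, 50 mM NaCl, 0.01% BSA, 0.01% Triton X-100, 2 mM DTT. The signal was normalised to plate controls and fitted with a four-parameter curve to give IC50.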

T1 sequence (Q92793 1081-1197): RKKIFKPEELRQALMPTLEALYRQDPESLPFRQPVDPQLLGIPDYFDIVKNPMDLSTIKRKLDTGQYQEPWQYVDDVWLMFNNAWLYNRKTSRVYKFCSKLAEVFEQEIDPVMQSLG

Row | Structure (SMILES) | IC50 [nM]
1 | Cc1noc(C)c1-c1cnc2c(c1)c(-c1ccc(C(=O)O)c(Cl)c1)cn2C(c1ccccn1)C1CCCC1 (centres unmarked) [P-0038, 2-chloro-4-(1-(cyclopentyl(pyridin-2-yl)methyl)-5-(3,5-dimethylisoxazol-4-yl)-1H-pyrrolo[2,3-b]pyridin-3-yl)benzoic acid] | 0.1 to 1000
2 | Cc1noc(C)c1-c1cnc2c(c1)c(-c1c(Cl)cc(C(=O)O)cc1OC(C)C)cn2C1(C)CCOC1 (centres unmarked) [P-0408, 3-chloro-4-(5-(3,5-dimethylisoxazol-4-yl)-1-(3-methyltetrahydrofuran-3-yl)-1H-pyrrolo[2,3-b]pyridin-3-yl)-5-isopropoxybenzoic acid] | 0.1 to 1000
3 | Cc1noc(C)c1-c1cnc2c(c1)c(-c1c(Cl)cc(C(=O)O)cc1OC1CC1)cn2-c1ncccc1C#N [P-0409, 3-chloro-4-(1-(3-cyanopyridin-2-yl)-5-(3,5-dimethylisoxazol-4-yl)-1H-pyrrolo[2,3-b]pyridin-3-yl)-5-cyclopropoxybenzoic acid] | 0.1 to 1000
4 | CCOc1cc(C(=O)O)c(F)cc1-c1cn(C2CCN(C(=O)CO)CC2)c2ncc(-c3c(C)noc3C)cc12 [P-0447, 4-(5-(3,5-dimethylisoxazol-4-yl)-1-(1-(2-hydroxyacetyl)piperidin-4-yl)-1H-pyrrolo[2,3-b]pyridin-3-yl)-5-ethoxy-2-fluorobenzoic acid] | 0.1 to 1000
5 | COC(=O)c1cc(-n2cc(Cc3ccccc3)c3ncc(-c4c(C)noc4C)cc32)ccn1 [P-0052, methyl 4-(3-benzyl-6-(3,5-dimethylisoxazol-4-yl)-1H-pyrrolo[3,2-b]pyridin-1-yl)picolinate] | 0.1 to 1000
6 | Cc1noc(C)c1-c1cnc2c(c1)c(-c1c(F)cc(C(=O)O)cc1OC1CC1)cn2C(C1CC1)C1CC1 [P-0394, 3-cyclopropoxy-4-(1-(dicyclopropylmethyl)-5-(3,5-dimethylisoxazol-4-yl)-1H-pyrrolo[2,3-b]pyridin-3-yl)-5-fluorobenzoic acid] | 0.1 to 1000
7 | CCOc1nc(C(=O)O)c(C)cc1-c1cn(C(C2CC2)C2CC2)c2ncc(-c3c(C)noc3C)cc12 [P-0416, 5-(1-(dicyclopropylmethyl)-5-(3,5-dimethylisoxazol-4-yl)-1H-pyrrolo[2,3-b]pyridin-3-yl)-6-ethoxy-3-methylpicolinic acid] | 0.1 to 1000
8 | CCOc1cc(C(=O)O)nc(OCC)c1-c1cn(-c2ncccc2C#N)c2ncc(-c3c(C)noc3C)cc12 [P-0421, 5-(1-(3-cyanopyridin-2-yl)-5-(3,5-dimethylisoxazol-4-yl)-1H-pyrrolo[2,3-b]pyridin-3-yl)-4,6-diethoxypicolinic acid] | 0.1 to 1000
9 | Cc1nnn(C)c1-c1cnc2c(c1)c(-c1ccc(C(=O)O)cc1OC1CC1)cn2C1CCOCC1 [P-0413, 3-cyclopropoxy-4-(5-(1,4-dimethyl-1H-1,2,3-triazol-5-yl)-1-(tetrahydro-2H-pyran-4-yl)-1H-pyrrolo[2,3-b]pyridin-3-yl)benzoic acid] | 0.1 to 1000
10 | Cc1noc(C)c1-c1cnc2c(c1)c(-c1c(Cl)cc(C(=O)O)cc1OC1CCC1)cn2-c1ncccc1C#N [P-0396, 3-chloro-4-(1-(3-cyanopyridin-2-yl)-5-(3,5-dimethylisoxazol-4-yl)-1H-pyrrolo[2,3-b]pyridin-3-yl)-5-cyclobutoxybenzoic acid] | 0.1 to 1000
11 | Cc1noc(C)c1-c1cnc2c(c1)c(-c1cc(F)c(C(=O)O)cc1OC(F)(F)F)cn2-c1ccc(C2CC2)nc1 [P-0444, 4-(1-(6-cyclopropylpyridin-3-yl)-5-(3,5-dimethylisoxazol-4-yl)-1H-pyrrolo[2,3-b]pyridin-3-yl)-2-fluoro-5-(trifluoromethoxy)benzoic acid] | 0.1 to 1000
12 | Cc1noc(C)c1-c1cnc2c(c1)c(C#CC(C)(C)C(=O)O)cn2Cc1ccccc1 [P-0051, 4-(1-benzyl-5-(3,5-dimethylisoxazol-4-yl)-1H-pyrrolo[2,3-b]pyridin-3-yl)-2,2-dimethylbut-3-ynoic acid] | 0.1 to 1000
13 | Cc1noc(C)c1-c1cnc2c(c1)c(-c1ccnc(C(=O)O)c1)cn2Cc1ccccc1 [P-0042, 4-(1-benzyl-5-(3,5-dimethylisoxazol-4-yl)-1H-pyrrolo[2,3-b]pyridin-3-yl)picolinic acid] | 0.1 to 1000
14 | COc1ncc(-n2cc(-c3ccc(C(=O)O)cc3OC(F)(F)F)c3cc(-c4c(C)noc4C)cnc32)cn1 [P-0392, 4-(5-(3,5-dimethylisoxazol-4-yl)-1-(2-methoxypyrimidin-5-yl)-1H-pyrrolo[2,3-b]pyridin-3-yl)-3-(trifluoromethoxy)benzoic acid] | 0.1 to 1000
